According to ChEMBL document CHEMBL1201862, “PubChem BioAssay data set” (2004):
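In this assay, cells in 96-well plates receive the compound at five concentrations for 48 hours. Endpoints are linearly interpolated between the surrounding concentrations. The concentration for 50% growth inhibition is given as GI50.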 Active and inactive are the calls of the source. No stated cut-off is given here; in the data, active = GI50 up to about 1.1 µM and inactive = higher.

How the values were obtained:
Test in all cases: NCI tumour cell line growth inhibition, 48 h
[1] = test system: 786-0
[2] = test system: A498
[3] = test system: A549
[4] = test system: ACHN
[5] = test system: BT-549
[6] = test system: CAKI-1
[7] = test system: CCRF-CEM
[8] = test system: COLO 205
[9] = test system: DU-145
[10] = test system: EKVX
[11] = test system: HCC 2998
[12] = test system: HCT-116
[13] = test system: HCT-15
[14] = test system: HL-60
[15] = test system: HOP-62
[16] = test system: HT-29
[17] = test system: Hs-578T
[18] = test system: IGROV-1
[19] = test system: K562
[20] = test system: KM12
[21] = test system: LOX IMVI
[22] = test system: M14
[23] = test system: MCF7
[24] = test system: MDA-MB-231
[25] = test system: MDA-MB-435
[26] = test system: MDA-N
[27] = test system: MOLT-4
[28] = test system: Malme-3M
[29] = test system: NCI-H226
[30] = test system: NCI-H23
[31] = test system: NCI-H460
[32] = test system: NCI-H522
[33] = test system: OVCAR-8
[34] = test system: PC-3
[35] = test system: RPMI-8226
[36] = test system: SF-268
[37] = test system: SF-295
[38] = test system: SF-539
[39] = test system: SK-MEL-28
[40] = test system: SK-MEL-5
[41] = test system: SK-OV-3
[42] = test system: SN12C
[43] = test system: SNB-19
[44] = test system: SNB-75
[45] = test system: SR
[46] = test system: SW-620
[47] = test system: T47D
[48] = test system: TK-10
[49] = test system: UACC-257
[50] = test system: UACC-62
[51] = test system: UO-31

Compound: COc1cc(OC)c2c(c1-c1ccc(C)cc1)CC(C)N(Cc1ccccc1)[C@H]2C (stereo partly specified)
- GI50 [1]: 33.7 µM (inactive)
- GI50 [2]: 87.7 µM (inactive)
- GI50 [3]: 44.2 µM (inactive)
- GI50 [4]: 18.3 µM (inactive)
- GI50 [5]: 28.2 µM (inactive)
- GI50 [6]: 63.8 µM (inactive)
- GI50 [7]: 7.76 µM (inactive)
- GI50 [8]: 32.3 µM (inactive)
- GI50 [9]: 86.3 µM (inactive)
- GI50 [10]: 43.9 µM (inactive)
- GI50 [11]: 31.1 µM (inactive)
- GI50 [12]: 20.3 µM (inactive)
- GI50 [13]: 35.9 µM
- GI50 [14]: 12.2 µM (inactive)
- GI50 [15]: 59 µM (inactive)
- GI50 [16]: 18.5 µM (inactive)
- GI50 [17]: 12.7 µM (inactive)
- GI50 [18]: 80.4 µM (inactive)
- GI50 [19]: 22.1 µM (inactive)
- GI50 [20]: 28.2 µM (inactive)
- GI50 [21]: 36.2 µM (inactive)
- GI50 [22]: 43.2 µM (inactive)
- GI50 [23]: 28.5 µM (inactive)
- GI50 [24]: 51.3 µM (inactive)
- GI50 [25]: 33.3 µM (inactive)
- GI50 [26]: 33.7 µM (inactive)
- GI50 [27]: 23.6 µM (inactive)
- GI50 [28]: 19.3 µM (inactive)
- GI50 [29]: 49.4 µM (inactive)
- GI50 [30]: 35 µM (inactive)
- GI50 [31]: 37.7 µM (inactive)
- GI50 [32]: 33.5 µM (inactive)
- GI50 [33]: 39.4 µM (inactive)
- GI50 [34]: 36.1 µM (inactive)
- GI50 [35]: 13.5 µM (inactive)
- GI50 [36]: 31.3 µM (inactive)
- GI50 [37]: 70.3 µM (inactive)
- GI50 [38]: 32.1 µM (inactive)
- GI50 [39]: 38.2 µM (inactive)
- GI50 [40]: 19.4 µM (inactive)
- GI50 [41]: 31.8 µM (inactive)
- GI50 [42]: 35.9 µM (inactive)
- GI50 [43]: 67.9 µM (inactive)
- GI50 [44]: 6.9 µM (inactive)
- GI50 [45]: 30.3 µM (inactive)
- GI50 [46]: 34.8 µM (inactive)
- GI50 [47]: 23.8 µM (inactive)
- GI50 [48]: 38.3 µM (inactive)
- GI50 [49]: 25.2 µM (inactive)
- GI50 [50]: 39.1 µM (inactive)
- GI50 [51]: 47.9 µM (inactive)
